Measured values from patent US5998437A, “Benzimidazole derivatives” (Otsuka Pharmaceutical Co., Ltd., priority 1995, dated 1999).
pIC50: −log10 of the molar value.

Experiments:
rat A10 cells = assay: Activity for inhibiting proliferation of rat A10 cells ([3H]-thymidine uptake); format: cell-based; conditions: A10, 1% FBS stimulation, 24 hours, read-out: Activity for inhibiting proliferation of rat A10 cells [IC50 (μM)]
Protocol: (2) Measurement of the Activity for Inhibiting Proliferation of Rat A10 Cells
(§1) Test was conducted by the modified method of N. Morisaki [Atherosclerosis, Vol. 71, (1988), pp. 165-171]. The rat A10 cells (purchased from Dainippon Pharmaceutical Co., Ltd.) were inoculated on a 24 wells immunoplate at a density of 10,000 cells/well, and were cultured in 10% FBS (fetal bovine serum) for 2 days, and in order to introduce the cells into the resting stage, the cells were further cultured in a serum-free medium for 2 days. After that, 1% FBS was added thereto for stimulating the proliferation, of the cells and at the same time, a test compound and 0.5 μCi/well of [^3 H]-thymidine were added. As to the index of synthesized amount of DNA, the quantity of [^3 H]-thymidine being uptaken by the cells was measured at the time of 24 hours after the final cultivation was started.

[1] = system: chronic contactive dermatitis; assay: Activity for inhibiting chronic contactive dermatitis (TNCB, ear pinna); format: in vivo, Balb/c strain male mouse; conditions: for Thickness of ear pinna (×10 μm): control 137.1 ± 6.2, 8 animals; for Inhibition rate (%): ear pinna thickness
Protocol: (5) Determination of the Activity for Inhibiting Chronic Contactive Dermatitis
The activity for inhibiting chronic contactive dermatitis [J. Dermatol. Sci., Vol. 8, (1994), page 54] which is analogous to atopic dermatitis being reported by Kitagaki, et al. was discussed by using the method as follows. The right-side ear pinna of Balb/c strain male mouse was subjected to antigen sensitization by coating with 20 μl of acetone solution of 1% trinitrochlorobenzene (TNCB). 7 Days after the antigen sensitization, the same right-side pinna was subjected to antigen induction by coating with 20 μl of 1% TNCB acetone solution. The treatment of antigen induction was repeated in every 2 days so as to induced chronic contactive dermatitis. In this test, increase of thickness of the right-side ear pinna was induced by passing into a chronic state of the contactive dermatitis. The test compound was dissolved in acetone-methanol (4:1 by v/v) and 20 μl of this solution was administered by coating on the right-side of ear pinna once a day from 24th day after the antigen induction for 2 weeks. As to the control, the only the solvent was similarly administered. The antigen induction by the test compound during administration period was conducted at 30 minutes before the administration. The thickness of the ear pinna of 14th day after the administration was measured by a dial thickness gauge.

T cells = assay: Activity for inhibiting proliferation of the T cells (mouse spleen cells, Concanavaline A); format: cell-based, Balb/c strain male mouse; conditions: T-cell, 2 days, then [3H] thymidine overnight
Protocol: (4) Measurement of the Activity for Inhibiting Proliferation of the T Cells
Test was conducted by the method as disclosed in "Current Protocol in Immunology" [Edited by Coligan, et al., (1991)] Chapter 3, page 12 (Published from Willy Interscience, Inc.). After sacrificed a Balb/c strain male mouse, the spleen was enucleated and a suspension of the spleen cells in RPMI-1640 culture medium was prepared. Said suspension was filtered through a nylon fiber mesh, and subjected to a centrifugal separation (1,200 rpm, for 5 minutes), there were added on pellet 5 ml of 0.15 M ammonium chloride, 10 mM potassium hydrogencarbonate, and 0.1 mM disodium salt of EDTA (pH 7.2) per one spleen so as to suspend the cells, and the suspension was incubated at 37° C. for 5 minutes. […] After counted the number of cells by using a hemacytometer, a suspension containing cell density of 10^6 /ml was prepared by diluting with RPMI-10 culture medium. […]
20 μCi/ml of [methyl-^3 H] thymidine was added in an amount of 10 μl/well, after further incubated overnight, by using a cell harvester the cells were recovered on the filter of the harvester. The filter was cut out from the cell harvester and put in a vial, then 5 ml of a scintillation cocktail (ACS-II) was added, and measured by using a liquid scintillation counter. […]

TPA induced inflammation = assay: Activity for inhibiting TPA induced inflammation (ear pinna); format: in vivo, ICR strain female mouse; conditions: 1% solution, 20 μl on ear pinna 30 minutes before TPA; 4 hours after TPA coating
Protocol: (6) Determination of the Activity for Inhibiting TPA Induced Inflammation
Test was conducted by the modified method of Carlson, et al. [Agents Actions, Vol. 26, (1989), page 319]. Thus, to the ear pinna of ICR strain female mouse, 20 μl of acetone solution of 12-O-tetradecanoylphorbol-13-acetate (TPA) in the concentration of 200 μg/ml was coated to induce inflammation. The thickness of ear pinna of 4 hours after the TPA coating was measured, and difference of the last value was defined as the ear pinna inflammation. Test compound was dissolved in acetone-methanol (4:1 by v/v) to make the concentration of 1%. 20 μl of test compound solution was coated on the ear pinna 30 minutes before the TPA coating. By using compound of Example 3 as test compound, the inflammation was inhibited at the rate of 66%.

human fibroblast = assay: Activity for inhibiting proliferation of the human fibroblast ([3H]-thymidine uptake); format: cell-based
Protocol: as §1
(3) Measurement of the Activity for Inhibiting Proliferation of the Human Fibroblast
Similar to the activity for inhibiting proliferation of rat A10 cells as mentioned above, the activity for inhibiting proliferation of the human fibroblast (purchased from Dainippon Pharmaceutical Co., Ltd.) was determined by measuring the uptake amount of [^3 H]-thymidine.

[2] = 0.1% coated once a day for 2 weeks

`O=C(Nc1ccc2c(ccn2CCCn2ccnc2)c1)c1nc2ccc(Cl)cc2n1Cc1ccccc1` [Example 3, 1-benzyl-6-chloro-2-{1-[3-(imidazol-1-yl)propyl]indol-5-ylamino-carbonyl}benzimidazole] was tested, and the IC50 (rat A10 cells) was 0.5 µM, the “Thickness of ear pinna (×10 μm)” value [1, 2] was 120.4 ± 5.3 ×10 μm and the “Thickness of ear pinna (×10 μm)” value ([1]; 0.3% coated once a day for 2 weeks) was 105.0 ± 7.2 ×10 μm. For the same molecule, the “Thickness of ear pinna (×10 μm)” value ([1]; 1.0% coated once a day for 2 weeks) was 64.5 ± 1.6 ×10 μm, the “Inhibition rate (%)” value [1, 2] was 12% and the “Inhibition rate (%)” value ([1]; 0.3% coated once a day for 2 weeks, * p < 0.01 vs control, Dunnett's test) was 23%. For the same molecule, the “Inhibition rate (%)” value ([1]; 1.0% coated once a day for 2 weeks, * p < 0.01 vs control, Dunnett's test) was 53%, the pIC50 (T cells) was 5.70 and the “Inhibition rate of TPA induced inflammation” value (TPA induced inflammation) was 66%. The pIC50 (human fibroblast) was 7.40.
